Where two headings read alike, the source gives them in different places.
How the values were obtained:
Type in all cases: cell-based
[1] = test system: circBRIP1 in HCT116 cells; test: DHX9 circBRIP1 cellular target engagement SYBR Green assay (qPCR); details: Homo sapiens, HCT-116, circBRIP1, HCT116 cells, read-out: DHX9 Cellular Target Engagement EC50
LS411N cells = test: DHX9 cellular proliferation assay (CellTiter-Glo), LS411N (CRC-MSI); details: Homo sapiens, LS-411N, LS411N, performed at Pharmaron, read-out: LS411N (CRC-MSI-H) Antiproliferative IC50
NCI-H747 cells = test: DHX9 cellular proliferation assay (CellTiter-Glo), NCI-H747 (CRC-MSS); details: Homo sapiens, performed at Pharmaron, read-out: H747 (CRC-MSS) Antiproliferative IC50

EC50 ([1]; SyBr assay (marked ^+)) | IC50 (NCI-H747 cells; NCI-H747, NCI-H747, CRC-MSS) | EC50 ([1]; ^+ SyBr assay was used) | IC50 (NCI-H747 cells; NCI-H747, NCI-H747) | SMILES | IC50 (LS411N cells; CRC-MSI-H) | IC50 (LS411N cells)
77.2 nM | > 10000 nM |  |  | CS(=O)(=O)Nc1cc(Cl)cc(NC(=O)c2cnn(-c3ccccc3OCc3cccc(F)c3)c2)c1 [Example 210] | 111 nM | 
803 nM | > 10000 nM |  |  | COc1cc2cc(C(=O)Nc3cc(Cl)cc(NS(C)(=O)=O)c3)sc2cc1OC [Example 291] | 352 nM | 
161 nM | > 10000 nM |  |  | CS(=O)(=O)Nc1cc(Cl)cc(NC(=O)c2cc(-c3ccccc3OCc3ccccc3)cs2)c1 [Example 111] | 318 nM | 
23.7 nM | > 10000 nM |  |  | CS(=O)(=O)Nc1cc(Cl)cc(NC(=O)c2cc(-c3ncccc3OCc3cnco3)cs2)c1 [Example 215] | 118 nM | 
143 nM | > 10000 nM |  |  | CS(=O)(=O)Nc1cc(Br)cc(NC(=O)c2cnn(-c3ccc(N4CCOCC4)cn3)c2)c1 [Example 55] | 1060 nM | 
281 nM | > 10000 nM |  |  | CC1CN(c2ccc(-n3cc(C(=O)Nc4cc(Cl)cc(NS(C)(=O)=O)c4)cn3)nc2)CCO1 (stereo not drawn) [Example 92] | 1100 nM | 
47.6 nM | 4700 nM |  |  | Cn1cc(C(=O)Nc2cc(Cl)cc(NS(C)(=O)=O)c2)cc1-c1ccc(N2CC3(COC3)C2)cn1 [Example 277] | 66.7 nM | 
40.3 nM | > 10000 nM |  |  | Cc1sc(C(=O)Nc2cc(Cl)cc(NS(C)(=O)=O)c2)cc1-c1ncccc1O [Example 227] | 879 nM | 
30 nM | > 10000 nM |  |  | Cc1cc(C(=O)Nc2cc(Cl)cc(NS(C)(=O)=O)c2)cn1-c1ccc(N2CCOCC2)cn1 [Example 93] | 253 nM | 
378 nM | > 10000 nM |  |  | Cc1cccc(OCc2cccc(F)c2)c1-n1cc(C(=O)Nc2cc(Cl)cc(NS(C)(=O)=O)c2)cn1 [Example 255] | 74.3 nM | 
55.8 nM | > 10000 nM |  |  | CCS(=O)(=O)Nc1cc(Cl)cc(NC(=O)c2cc(-c3ncccc3C)cs2)c1 [Example 224] | 122 nM | 
19.9 nM | > 10000 nM |  |  | CS(=O)(=O)Nc1cc(Cl)cc(NC(=O)c2cc(-c3ncc(F)cc3OCc3cncc(F)c3)cs2)c1 [Example 225] | 43.9 nM | 
 |  | 112 nM | > 10000 nM | CN1C(=O)N(c2csc(C(=O)Nc3cc(Cl)cc(NS(C)(=O)=O)c3)c2)C(=O)C1(C)C [Example 432] |  | 141 nM
54.2 nM | > 10000 nM |  |  | Cc1sc(C(=O)Nc2cc(Br)cc(NS(C)(=O)=O)c2)cc1-c1ccccn1 [Example 23] | 53.1 nM | 
144 nM | 6980 nM |  |  | CS(=O)(=O)Nc1cc(Cl)cc(NC(=O)c2cc(-c3ccccc3)c(CO)s2)c1 [Example 120, N-(3-chloro-5-(methylsulfonamido)phenyl)-5-(hydroxymethyl)-4-phenylthiophene-2-carboxamide] | 1070 nM | 
297 nM | > 10000 nM |  |  | CS(=O)(=O)Nc1cc(Br)cc(NC(=O)c2cnn(-c3cc(C#N)ccc3OCc3ccccc3)c2)c1 [Example 67] | 1050 nM | 
104 nM | > 10000 nM |  |  | Cc1cc(C(=O)Nc2cc(Cl)cc(NS(C)(=O)=O)c2)cn1-c1ncccn1 [Example 59] | 357 nM | 
74.2 nM | > 10000 nM |  |  | Cc1cc(C(=O)Nc2cc(Cl)cc(NS(C)(=O)=O)c2)cn1-c1ncccc1OCc1nccs1 [Example 280] | 116 nM | 
110 nM | 8040 nM |  |  | Cc1cc(C(=O)Nc2cc(Cl)cc(NS(C)(=O)=O)c2)cn1-c1ccc(Cl)cn1 [Example 389] | 113 nM | 
73.2 nM | > 10000 nM |  |  | Cn1cc(C(=O)Nc2cc(Cl)cc(NS(C)(=O)=O)c2)cc1-c1ncccn1 [Example 82] | 134 nM | 
 |  | 35.2 nM | 7400 nM | Cn1cc(C(=O)Nc2cc(Cl)cc(NS(C)(=O)=O)c2)cc1-c1ccc(N2CC(F)(F)C2)cn1 [Example 595, N-(3-chloro-5-methanesulfonamidophenyl)-5-[5-(3,3-difluoroazetidin-1-yl)pyridin-2-yl]-1-methyl-1H-pyrrole-3-carboxamide] |  | 167 nM
 |  | 33 nM | > 10000 nM | Cc1cc(C(=O)Nc2cc(Cl)cc(NS(C)(=O)=O)c2)cn1-c1ccc(N2CCC(F)(F)C2)cn1 [Example 396] |  | 122 nM
 |  | 21.2 nM | > 10000 nM | Cc1cc(C(=O)Nc2cc(Cl)cc(NS(C)(=O)=O)c2)cn1-c1ccc(N2CCCC2=O)cn1 [Example 410] |  | 373 nM
> 10000 nM | > 10000 nM |  |  | CS(=O)(=O)Nc1cc(Cl)cc(NC(=O)c2cnn(-c3ncc(F)cc3CCc3cccc(F)c3)c2)c1 [Example 251] | 432 nM | 

EC50 ([1]; SyBr assay (marked ^+)) | IC50 (NCI-H747 cells; NCI-H747, NCI-H747, CRC-MSS) | EC50 ([1]; ^+ SyBr assay was used) | IC50 (NCI-H747 cells; NCI-H747, NCI-H747) | SMILES | IC50 (LS411N cells; CRC-MSI-H) | IC50 (LS411N cells)
 |  | 16.2 nM | 7010 nM | Cn1cc(C(=O)Nc2cc(Cl)cc(NS(C)(=O)=O)c2)cc1-c1ccc(N2CC(F)C2)cn1 [Example 539] |  | 98.3 nM
101 nM | > 10000 nM |  |  | CS(=O)(=O)Nc1cc(Cl)cc(NC(=O)c2cc(-c3ncccc3Oc3ncccn3)cs2)c1 [Example 178, N-(3-chloro-5-(methylsulfonamido)phenyl)-4-(3-(pyrimidin-2-yloxy)pyridin-2-yl)thiophene-2-carboxamide] | 81.1 nM | 
 |  | 46 nM | > 10000 nM | COCCOc1ccc(-n2cc(C(=O)Nc3cc(Cl)cc(NS(C)(=O)=O)c3)cc2C)nc1 [Example 442] |  | 123 nM
51.9 nM | 9280 nM |  |  | CS(=O)(=O)Nc1cc(Cl)cc(NC(=O)c2cc(-c3ncccc3OCc3ccccc3)cs2)c1 [Example 29] | 124 nM | 
460 nM | > 10000 nM |  |  | CC(C)c1sc(C(=O)Nc2cc(Cl)cc(NS(C)(=O)=O)c2)cc1-c1ccccn1 [Example 233] | 356 nM | 
167 nM | > 10000 nM |  |  | Cc1cc(C(=O)Nc2cc(Cl)cc(NS(C)(=O)=O)c2)cn1-c1ccc(F)cn1 [Example 390] | 63.1 nM | 
 |  | 51.1 nM | > 10000 nM | CS(=O)(=O)Nc1cc(Cl)cc(NC(=O)c2cnn(-c3ccc(N4CC5(COC5)C4)cc3OCc3cccc(F)c3)c2)c1 [Example 722] |  | 50.6 nM
34.6 nM | > 10000 nM |  |  | COc1cnc(-c2cc(C(=O)Nc3cc(Cl)cc(NS(C)(=O)=O)c3)sc2C)nc1 [Example 341] | 122 nM | 
 |  | 74.1 nM | > 10000 nM | Cc1cc(C(=O)Nc2cc(Cl)cc(NS(C)(=O)=O)c2)cn1-c1ccc(N2CC3CC3C2)cn1 (stereo not drawn) [Example 411] |  | 142 nM
100 nM | 7220 nM |  |  | Cc1sc(C(=O)Nc2cc(Br)cc(NS(C)(=O)=O)c2)cc1-c1ccccc1O [Example 20] | 609 nM | 
106 nM | > 10000 nM |  |  | COc1cnc(-c2csc(C(=O)Nc3cc(Cl)cc(NS(C)(=O)=O)c3)c2)nc1 [Example 340] | 118 nM | 
25.8 nM | > 10000 nM |  |  | CCS(=O)(=O)Nc1cc(Cl)cc(NC(=O)c2cc(-c3ccccn3)c(C)s2)c1 [Example 28] | 78.8 nM | 
7 nM | > 10000 nM |  |  | Cn1cc(C(=O)Nc2cc(Cl)cc(NS(C)(=O)=O)c2)cc1-c1ncccc1OCc1cncc(F)c1 [Example 174, N-(3-chloro-5-(methylsulfonamido)phenyl)-5-(3-((5-fluoropyridin-3-yl)methoxy)pyridin-2-yl)-1-methyl-1H-pyrrole-3-carboxamide] | 33.3 nM | 
 |  | 26.3 nM | 6940 nM | Cc1cc(C(=O)Nc2cc(Cl)cc(NS(C)(=O)=O)c2)cn1-c1ccc(N2CCC2)cn1 [Example 397] |  | 46.5 nM
 |  | 89.5 nM | > 10000 nM | COc1cnn(-c2cc(C(=O)Nc3cc(Cl)cc(NS(C)(=O)=O)c3)sc2C)c1 [Example 436] |  | 272 nM
 |  | 34.4 nM | 8890 nM | Cc1cc(C(=O)Nc2cc(Cl)cc(NS(C)(=O)=O)c2)cn1-c1ccc(N2CC(F)(F)C2)cn1 [Example 399] |  | 95.2 nM
74.6 nM | > 10000 nM |  |  | CN(C)C(=O)c1sc(C(=O)Nc2cc(Cl)cc(NS(C)(=O)=O)c2)cc1-c1ncccc1OCc1ccccc1 [Example 213] | 173 nM | 
51.1 nM | > 10000 nM |  |  | CCOc1cnc(-c2cc(C(=O)Nc3cc(Cl)cc(NS(C)(=O)=O)c3)sc2C)nc1 [Example 335] | 52.6 nM | 
53.3 nM | > 10000 nM |  |  | Cn1cc(C(=O)Nc2cc(Cl)cc(NS(C)(=O)=O)c2)cc1-c1ncccc1OCc1nccs1 [Example 279] | 81.1 nM | 
 |  | 62.1 nM | 3560 nM | Cn1cc(C(=O)Nc2cc(Cl)cc(NS(C)(=O)=O)c2)cc1-c1ncc(C(F)(F)F)cn1 [Example 571] |  | 159 nM
> 10000 nM | > 10000 nM |  |  | CCc1cn2cc(C(=O)Nc3cc(Cl)cc(NS(C)(=O)=O)c3)ccc2n1 [Example 132] | > 10000 nM | 
 |  | 106 nM | > 10000 nM | COc1ccc(-c2cc(C(=O)Nc3cc(Cl)cc(NS(C)(=O)=O)c3)cn2C)nc1 [Example 573] |  | 103 nM
 |  | 96 nM | 4360 nM | Cc1cc(C(=O)Nc2cc(Cl)cc(NS(C)(=O)=O)c2)cn1-c1ccc(C(F)(F)F)cn1 [Example 443] |  | 353 nM
9630 nM | > 10000 nM |  |  | Cc1cccnc1-c1nc(C(=O)Nc2cc(Br)cc(NS(C)(=O)=O)c2)cn1C [Example 96, N-(3-bromo-5-(methylsulfonamido)phenyl)-1-methyl-2-(3-methylpyridin-2-yl)-1H-imidazole-4-carboxamide] | > 10000 nM | 

— patent US12162867B2, “Inhibitors of RNA helicase DHX9 and uses thereof” (ACCENT THERAPEUTICS, INC., priority 2022, dated 2024)
